For 28 compounds, IC50 and EC50 results are on record in patent US10669272B2, “Substituted naphthyridinone compounds useful as T cell activators” (BRISTOL-MYERS SQUIBB COMPANY, priority 2018, dated 2020).

Where two headings read alike, the source gives them in different places.

One assay concerns the target T1, human DGKζ (Homo sapiens, UniProt Q13574).
T1 construct: TVMV protease cleavage site (C); Hexa-His (C); made in house; host or cells: Sf9 insect cells (baculovirus, Bac-to-Bac)
In words: DGKζ LIPGLO assay (extruded liposome substrate), in vitro DGK inhibition. The class given is biochemical. Particulars: liposome (LIPGLO) assay; read-out: DGKz LIPGLO IC50.

A further assay deals with naïve human CD8 T cells. Nature of the assay: Human CD8 T cells IFN-γ assay.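 Also: Naïve human CD8 T cells stimulated with plate-bound anti-CD3 and soluble anti-CD28, IFN-γ in supernatant quantified by AlphaLISA and converted to pg/mL.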 In kind it is cell-based. Particulars: normalized to 3 μM reference compound with anti-CD3 plus anti-CD28 as 100% activation, read-out: HuCD8 INFG Normalized EC50.
A further assay relates to Human venous whole blood. Nature of the assay: Human whole blood IFN-γ assay.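 Also: blood from healthy donors exposed to compound for 1 h before stimulation with anti-CD3 and anti-CD28 at 1 µg/mL each, IFN-γ quantified in supernatant by AlphaLISA.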 In kind it is cell-based. Particulars: human whole blood, normalized to 3 μM reference compound with anti-CD3 plus anti-CD28 as 100% activation, read-out: INFg Whole Blood Normalized Agonist EC50.
The next assay concerns the target T2, human DGKα (Homo sapiens, UniProt P23743).
T2 construct: TVMV protease cleavage site (C); Hexa-His (C); made in house; host or cells: Sf9 insect cells (baculovirus, Bac-to-Bac)
In words: DGKα LIPGLO assay (extruded liposome substrate), in vitro DGK inhibition. In kind it is biochemical. Conditions: liposome (LIPGLO) assay; read-out: DGKa LIPGLO IC50.

T1 sequence (Q13574 with tags, fused parts or gaps isoform Q13574-4): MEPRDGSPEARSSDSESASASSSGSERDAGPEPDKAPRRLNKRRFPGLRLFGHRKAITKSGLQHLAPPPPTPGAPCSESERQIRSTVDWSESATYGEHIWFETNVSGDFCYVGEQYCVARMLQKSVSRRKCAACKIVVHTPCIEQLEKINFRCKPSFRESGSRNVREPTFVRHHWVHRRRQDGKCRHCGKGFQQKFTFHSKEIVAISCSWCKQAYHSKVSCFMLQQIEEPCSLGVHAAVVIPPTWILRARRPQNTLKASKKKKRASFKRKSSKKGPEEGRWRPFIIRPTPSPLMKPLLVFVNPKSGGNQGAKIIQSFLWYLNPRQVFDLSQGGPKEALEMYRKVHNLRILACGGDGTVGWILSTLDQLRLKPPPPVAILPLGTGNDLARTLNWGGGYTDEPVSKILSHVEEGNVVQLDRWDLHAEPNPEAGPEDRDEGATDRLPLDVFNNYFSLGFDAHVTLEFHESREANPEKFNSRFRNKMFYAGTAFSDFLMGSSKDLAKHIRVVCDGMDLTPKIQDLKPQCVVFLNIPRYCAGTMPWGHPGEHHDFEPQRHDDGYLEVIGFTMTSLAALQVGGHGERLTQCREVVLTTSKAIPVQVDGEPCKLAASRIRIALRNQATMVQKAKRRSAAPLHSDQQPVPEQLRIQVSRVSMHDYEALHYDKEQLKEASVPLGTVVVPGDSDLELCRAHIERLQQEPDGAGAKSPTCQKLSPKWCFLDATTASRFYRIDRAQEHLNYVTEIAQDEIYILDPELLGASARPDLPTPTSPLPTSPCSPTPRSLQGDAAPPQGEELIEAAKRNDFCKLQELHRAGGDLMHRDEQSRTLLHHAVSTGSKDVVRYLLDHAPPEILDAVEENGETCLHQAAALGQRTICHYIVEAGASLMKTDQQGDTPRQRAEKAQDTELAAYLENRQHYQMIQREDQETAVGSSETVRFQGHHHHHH
T2 sequence (P23743 with tags, fused parts or gaps): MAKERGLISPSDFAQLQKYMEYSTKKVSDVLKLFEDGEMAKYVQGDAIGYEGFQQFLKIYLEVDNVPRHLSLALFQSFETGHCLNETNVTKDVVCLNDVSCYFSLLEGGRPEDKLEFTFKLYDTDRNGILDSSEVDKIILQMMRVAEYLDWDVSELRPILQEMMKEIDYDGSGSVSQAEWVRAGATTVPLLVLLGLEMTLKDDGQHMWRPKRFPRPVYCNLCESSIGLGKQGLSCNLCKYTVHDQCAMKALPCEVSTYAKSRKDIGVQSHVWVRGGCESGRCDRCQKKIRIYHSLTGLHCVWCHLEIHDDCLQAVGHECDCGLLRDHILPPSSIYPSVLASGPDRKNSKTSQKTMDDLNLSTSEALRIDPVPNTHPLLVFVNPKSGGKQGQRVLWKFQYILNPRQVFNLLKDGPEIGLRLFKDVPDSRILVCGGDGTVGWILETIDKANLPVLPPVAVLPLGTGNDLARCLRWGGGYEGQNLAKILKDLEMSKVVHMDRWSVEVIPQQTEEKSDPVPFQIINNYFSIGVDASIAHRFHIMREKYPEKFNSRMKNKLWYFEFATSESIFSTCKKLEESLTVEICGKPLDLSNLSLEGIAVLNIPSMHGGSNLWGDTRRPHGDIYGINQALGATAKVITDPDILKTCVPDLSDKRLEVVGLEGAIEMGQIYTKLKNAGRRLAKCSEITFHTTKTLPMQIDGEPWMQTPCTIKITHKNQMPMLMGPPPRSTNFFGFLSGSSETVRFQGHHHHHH
Procedure for Human venous whole blood: Human Whole Blood IFN-γ Assay
Human venous whole blood (22.5 μL per well), obtained from healthy donors, was pre-treated with compounds for one hour at 37° C. in a humidified 95% air/5% CO2 incubator. The blood was stimulated with 2.5 μL anti-human CD3 and anti-CD28 mAb at a final concentration of 1 μg/mL each for 24 hours at 37° C. IFN-γ in the supernatants was measured using AlphLISA kit (Cat # AL217).

For `Cc1cccc(C(c2ccc(F)cc2)N2C[C@H](C)N(c3cc(=O)n(C)c4ccc(C#N)nc34)C[C@H]2C)c1` (single isomer, unassigned) [Example 224], the values for the IC50 at human DGKζ and on human DGKα were 57 nM and 1500 nM, respectively. The EC50 was 24 nM in the assay on naïve human CD8 T cells and 1000 nM in the assay on Human venous whole blood.
The corresponding values for `CCc1cc(F)ccc1C(c1ccc(Cl)cc1)N1C[C@H](C)N(c2cc(=O)n(C)c3ccc(C#N)nc23)C[C@H]1C` (single isomer, unassigned) [Example 226] are 1400 nM, 67000 nM, 67 nM and 1700 nM.
Regarding `CCc1cc(F)ccc1C(c1ccc(F)cc1)N1C[C@H](C)N(c2cc(=O)n(C)c3ccc(C#N)nc23)C[C@H]1C` (single isomer, unassigned) [Example 227], the values for the IC50 at human DGKζ and on human DGKα were 1000 nM and over 250000 nM, respectively. Further, the EC50 with naïve human CD8 T cells (Homo sapiens, T-cell, 20 h) was 16 nM; in the assay with Human venous whole blood, 13000 nM.
For the compound `CCc1cc(F)ccc1C(c1ccc(F)cc1)N1C[C@H](C)N(c2cc(=O)n(C)c3ccc(C#N)nc23)C[C@H]1C` (single isomer, unassigned) [Example 228], the IC50 on human DGKζ amounted to 1400 nM; on human DGKα, 58000 nM. The EC50 was found to be 31 nM with naïve human CD8 T cells and 2800 nM with Human venous whole blood.
Regarding `CCOc1cc(F)ccc1C(c1ccc(F)cc1)N1C[C@H](C)N(c2cc(=O)n(C)c3ccc(C#N)nc23)C[C@H]1C` (single isomer, unassigned) [Example 229], the figures for the IC50 at human DGKζ and on human DGKα were 450 nM and 58000 nM, respectively. The EC50 with naïve human CD8 T cells was determined as 1000 nM; in the assay with Human venous whole blood (Homo sapiens, 24 h) it was 8300 nM.
In the case of `CCOc1cc(F)ccc1C(c1ccc(F)cc1)N1C[C@H](C)N(c2cc(=O)n(C)c3ccc(C#N)nc23)C[C@H]1C` (single isomer, unassigned) [Example 230], the IC50 at human DGKζ is 490 nM; at human DGKα, 26000 nM. Besides, the EC50 in the assay with naïve human CD8 T cells is 370 nM; in the assay on Human venous whole blood, 5300 nM.
As for `CCc1cc(F)ccc1C(c1ccc(Cl)cc1)N1C[C@H](C)N(c2cc(=O)n(C)c3ccc(OC)nc23)C[C@H]1C` (single isomer, unassigned) [Example 231], the figures for the IC50 on human DGKζ and on human DGKα were 3700 nM and 240000 nM, respectively. The EC50 in the assay on naïve human CD8 T cells was found to be 1100 nM; with Human venous whole blood (Homo sapiens, 24 h), 20000 nM.
For `CCc1cc(F)ccc1C(c1ccc(Cl)cc1)N1C[C@H](C)N(c2cc(=O)n(C)c3ccc(OC)nc23)C[C@H]1C` (single isomer, unassigned) [Example 232], the IC50 was determined as 1700 nM at human DGKζ and 240000 nM on human DGKα. For the same compound, the results for the EC50 in the assay on naïve human CD8 T cells and in the assay with Human venous whole blood were 10000 nM and 20000 nM, respectively.
Turning to `CCc1cc(F)ccc1C(c1ccc(F)cc1)N1C[C@H](C)N(c2cc(=O)n(C)c3ccc(OC)nc23)C[C@H]1C` (single isomer, unassigned) [Example 233], the IC50 at human DGKζ turned out to be 3600 nM; at human DGKα it was 27000 nM. Further, the EC50 with naïve human CD8 T cells came out at 10000 nM; in the assay on Human venous whole blood (Homo sapiens, 24 h), 20000 nM.
Take `CCc1cc(F)ccc1C(c1ccc(F)cc1)N1C[C@H](C)N(c2cc(=O)n(C)c3ccc(OC)nc23)C[C@H]1C` (single isomer, unassigned) [Example 234]: the figures for the IC50 on human DGKζ and at human DGKα were 8700 nM and 240000 nM, respectively. Also, the EC50 in the assay on naïve human CD8 T cells turned out to be 2500 nM; with Human venous whole blood, 20000 nM.
As for `CCc1ccccc1C(c1ccc(F)cc1)N1C[C@H](C)N(c2cc(=O)n(C)c3ccc(OC)nc23)C[C@H]1C` (single isomer, unassigned) [Example 235], the results for the IC50 at human DGKζ and at human DGKα were 4800 nM and 81000 nM, respectively. Further, the EC50 turned out to be 1500 nM with naïve human CD8 T cells and 20000 nM in the assay with Human venous whole blood (Homo sapiens, 24 h).
Consider `CCc1ccccc1C(c1ccc(F)cc1)N1C[C@H](C)N(c2cc(=O)n(C)c3ccc(OC)nc23)C[C@H]1C` (single isomer, unassigned) [Example 236], for which the IC50 on human DGKζ turned out to be 11000 nM; at human DGKα, 240000 nM. The results for the EC50 with naïve human CD8 T cells and in the assay on Human venous whole blood were 10000 nM and 20000 nM, respectively.
Take `C[C@@H]1CN(c2cc(=O)n(C)c3ccc(C#N)nc23)[C@@H](C)CN1C(c1ccc(F)cc1)c1cccc(F)c1` (single isomer, unassigned) [Example 249]: the IC50 at human DGKζ was determined as 440 nM; on human DGKα, 820 nM. In addition, the EC50 with naïve human CD8 T cells (Homo sapiens, T-cell, 20 h) stood at 32 nM; in the assay on Human venous whole blood (Homo sapiens, 24 h), 690 nM.
Take `C[C@@H]1CN(c2cc(=O)n(C)c3ccc(C#N)nc23)[C@@H](C)CN1C(c1ccccc1)c1c(F)cccc1F` (single isomer, unassigned) [Example 272]: the figures for the IC50 at human DGKζ and on human DGKα were 450 nM and 990 nM, respectively. Also, the 50% effective concentration (EC50) is 79 nM in the assay with naïve human CD8 T cells (Homo sapiens, T-cell, 20 h) and 2500 nM with Human venous whole blood.
Turning to `C[C@@H]1CN(c2cc(=O)n(C)c3ccc(C#N)nc23)[C@@H](C)CN1C(c1ccc(F)cc1)c1c(F)cccc1F` (single isomer, unassigned) [Example 274], the results for the IC50 at human DGKζ and on human DGKα were 2500 nM and 5700 nM, respectively. The EC50 amounted to 42 nM in the assay with naïve human CD8 T cells and 3600 nM with Human venous whole blood (Homo sapiens, 24 h).
Regarding `C[C@@H]1CN(c2cc(=O)n(C)c3ccc(C#N)nc23)[C@@H](C)CN1C(c1ccc(F)cc1)c1c(F)cccc1F` (single isomer, unassigned) [Example 275], the IC50 at human DGKζ turned out to be 3600 nM; at human DGKα, 1900 nM. Moreover, the EC50 in the assay on naïve human CD8 T cells was 230 nM; in the assay on Human venous whole blood, 3700 nM.
The corresponding values for `CC(c1ccc(F)cc1)N1C[C@H](C)N(c2cc(=O)n(C)c3ccc(C#N)nc23)C[C@H]1C` (single isomer, unassigned) [Example 309] are 490 nM, 720 nM, 36 nM and 880 nM.
In the case of `CCC(c1ccc(F)c(F)c1)N1C[C@H](C)N(c2cc(=O)n(C)c3ccc(C#N)nc23)C[C@H]1C` (single isomer, unassigned) [Example 344], the IC50 on human DGKζ and on human DGKα was 1000 nM in each case. Further, the EC50 with naïve human CD8 T cells (Homo sapiens, T-cell, 20 h) was 24 nM; in the assay with Human venous whole blood (Homo sapiens, 24 h) it was 460 nM.
Consider `CCc1ccc(C(c2cccc(F)c2)N2C[C@H](C)N(c3cc(=O)n(C)c4ccc(C#N)nc34)C[C@H]2C)nc1` (single isomer, unassigned) [Example 350], for which the figures for the concentration for half-maximal inhibition (IC50) at human DGKζ and at human DGKα were 1800 nM and 1900 nM, respectively. Also, the EC50 with naïve human CD8 T cells came to 200 nM; in the assay on Human venous whole blood, 850 nM.
On to `CCc1ccc(C(c2cccc(F)c2)N2C[C@H](C)N(c3cc(=O)n(C)c4ccc(C#N)nc34)C[C@H]2C)nc1` (single isomer, unassigned) [Example 351], for which the IC50 on human DGKζ came out at 1300 nM; at human DGKα, 640 nM. For the same compound, the values for the EC50 in the assay on naïve human CD8 T cells and with Human venous whole blood were 31 nM and 89 nM, respectively.
`C[C@@H]1CN(c2cc(=O)n(C)c3ccc(C#N)nc23)[C@@H](C)CN1C(c1ccc(F)cc1)C1CCCCO1` (single isomer, unassigned) [Example 359]: the results for the IC50 on human DGKζ and at human DGKα were 1100 nM and 280 nM, respectively. For the same compound, the EC50 with naïve human CD8 T cells (Homo sapiens, T-cell, 20 h) stood at 38 nM; with Human venous whole blood it was 660 nM.
In the case of `Cc1ccc(C(c2ccc(C#N)cc2)N2C[C@H](C)N(c3cc(=O)n(C)c4ccc(C#N)nc34)C[C@H]2C)nc1` (single isomer, unassigned) [Example 360], the IC50 came to 2500 nM on human DGKζ and 570 nM at human DGKα. In addition, the EC50 in the assay with naïve human CD8 T cells (Homo sapiens, T-cell, 20 h) was 130 nM; with Human venous whole blood, 310 nM.
With `Cc1ccnc(C(c2ccc(Cl)cc2)N2C[C@H](C)N(c3cc(=O)n(C)c4ccc(C#N)nc34)C[C@H]2C)c1` (single isomer, unassigned) [Example 362], the IC50 on human DGKζ stood at 340 nM; at human DGKα, 230 nM. Besides, the EC50 with naïve human CD8 T cells (Homo sapiens, T-cell, 20 h) is 230 nM; in the assay with Human venous whole blood (Homo sapiens, 24 h) it was 720 nM.
For `Cc1ccc(C(c2ccc(Cl)cc2)N2C[C@H](C)N(c3cc(=O)n(C)c4ccc(C#N)nc34)C[C@H]2C)nc1` (single isomer, unassigned) [Example 363], the figures for the IC50 on human DGKζ and on human DGKα were 400 nM and 150 nM, respectively. Besides, the EC50 in the assay with naïve human CD8 T cells (Homo sapiens, T-cell, 20 h) came out at 99 nM; in the assay on Human venous whole blood it was 130 nM.
With `C[C@@H]1CN(c2cc(=O)n(C)c3ccc(C#N)nc23)[C@@H](C)CN1C(c1ccc(OC(F)(F)F)cc1)c1cccc(F)n1` (single isomer, unassigned) [Example 367], the IC50 worked out at 2700 nM on human DGKζ and 1300 nM on human DGKα. The EC50 in the assay on naïve human CD8 T cells (Homo sapiens, T-cell, 20 h) came out at 13 nM; in the assay with Human venous whole blood (Homo sapiens, 24 h) it was 460 nM.
With `C[C@@H]1CN(c2cc(=O)n(C)c3ccc(C#N)nc23)[C@@H](C)CN1C(c1ccc(OC(F)(F)F)cc1)c1cccc(F)n1` (single isomer, unassigned) [Example 368], the figures for the IC50 at human DGKζ and on human DGKα were 2500 nM and 1700 nM, respectively. Besides, the values for the EC50 with naïve human CD8 T cells and in the assay with Human venous whole blood were 10 nM and 460 nM, respectively.
On to `Cc1ccc(C(c2cccc(Cl)c2)N2C[C@H](C)N(c3cc(=O)n(C)c4ccc(C#N)nc34)C[C@H]2C)nc1` (single isomer, unassigned) [Example 369], for which the figures for the IC50 at human DGKζ and on human DGKα were 1400 nM and 2800 nM, respectively. Also, the EC50 amounted to 150 nM in the assay with naïve human CD8 T cells and 480 nM in the assay on Human venous whole blood (Homo sapiens, 24 h).
In the case of `Cc1ccc(C(c2cccc(Cl)c2)N2C[C@H](C)N(c3cc(=O)n(C)c4ccc(C#N)nc34)C[C@H]2C)nc1` (single isomer, unassigned) [Example 372], the values for the IC50 at human DGKζ and on human DGKα were 270 nM and 550 nM, respectively. Besides, the EC50 in the assay with naïve human CD8 T cells was 22 nM; in the assay with Human venous whole blood, 270 nM.

For orientation: IC50 means the concentration at which inhibition is half-maximal. In general, EC50 refers to the midpoint of the concentration-response curve.
